Numbers after ± are expanded uncertainties.
Settings: Liquid, Ebulliometric method (Recirculating still)

Compound | vapor or sublimation pressure (365.49 K) [kPa] | vapor or sublimation pressure (376.75 K) [kPa] | vapor or sublimation pressure (385.55 K) [kPa] | vapor or sublimation pressure (392.87 K) [kPa] | vapor or sublimation pressure (398.66 K) [kPa] | vapor or sublimation pressure (404.09 K) [kPa] | vapor or sublimation pressure (408.83 K) [kPa] | vapor or sublimation pressure (413.06 K) [kPa] | vapor or sublimation pressure (417.28 K) [kPa] | vapor or sublimation pressure (344.79 K) [kPa] | vapor or sublimation pressure (357.27 K) [kPa] | vapor or sublimation pressure (365.3 K) [kPa] | vapor or sublimation pressure (372.09 K) [kPa] | vapor or sublimation pressure (377.89 K) [kPa] | vapor or sublimation pressure (382.18 K) [kPa] | vapor or sublimation pressure (386.25 K) [kPa] | vapor or sublimation pressure (390.38 K) [kPa] | vapor or sublimation pressure (394.05 K) [kPa]
Cc1ccccc1C [1,2-dimethylbenzene] | 20.4 ± 0.35 | 30.14 ± 0.35 | 40.2 ± 0.36 | 50.43 ± 0.37 | 60.03 ± 0.38 | 70.27 ± 0.4 | 80.41 ± 0.41 | 90.54 ± 0.43 | 101.85 ± 0.44 |  |  |  |  |  |  |  |  | 
C1CCSC1 [tetrahydrothiophene] |  |  |  |  |  |  |  |  |  | 20.39 ± 0.35 | 32.09 ± 0.36 | 42.29 ± 0.37 | 52.61 ± 0.38 | 63.09 ± 0.39 | 71.89 ± 0.41 | 81.18 ± 0.42 | 91.67 ± 0.44 | 102.02 ± 0.45

Source: the NIST ThermoML archive (doi:10.1016/j.fluid.2009.11.017)
